Results reported in US20220281848A1, “PYRAZOLE-SUBSTITUTED PYRROLIDINONES AS HERBICIDES” (FMC Corporation, priority 2019, published 2022).

How the values were obtained:
Type in all cases: in vivo
Conditions in all cases: after 13 d
corn (Zea mays, ZEAMX) [1] = test: Test A pre-emergence, corn
Experimental: (§1) Seeds of corn (Zea mays, ZEAMX), giant foxtail (Setaria faberi, SETFA), barnyardgrass (Echinochloa crus-galli, ECHCG), ivy-leaved morning glory (Ipomoea hederacea, IPOHE), redroot pigweed (Amaranthus retroflexus, AMARE) and velvetleaf (Abutilon theophrasti, ABUTH) were sown in standard soil in pots. After cultivation for one day under controlled conditions in a glasshouse (at 24/16° C., day/night; 14 h light; 65% humidity), the plants were sprayed with an aqueous spray solution derived from the formulation of the technical active ingredient in acetone/water (50:50) solution containing 0.5% Tween 20 (polyoxyethylene sorbitan monolaurate, CAS RN 9005-64-5) to give a final dose of 15.625, 62.5 or 250 g/ha of test compound.
(§2) The test plants were then grown under controlled conditions in a glasshouse (at 24/16° C., day/night; 14 h light; 65% humidity) and watered twice daily. After 13 d the test was evaluated (100=total damage to plant; 0=no damage to plant).

[2] = tested on: giant foxtail (Setaria faberi, SETFA); test: Test A pre-emergence, giant foxtail
Experimental: as §1, §2

[3] = tested on: barnyardgrass (Echinochloa crus-galli, ECHCG); test: Test A pre-emergence, barnyardgrass
Experimental: as §1, §2

[4] = tested on: ivy-leaved morning glory (Ipomoea hederacea, IPOHE); test: Test A pre-emergence, ivy-leaved morning glory
Experimental: as §1, §2

[5] = tested on: redroot pigweed (Amaranthus retroflexus, AMARE); test: Test A pre-emergence, redroot pigweed
Experimental: as §1, §2

[6] = tested on: velvetleaf (Abutilon theophrasti, ABUTH); test: Test A pre-emergence, velvetleaf
Experimental: as §1, §2

corn (Zea mays, ZEAMX) [7] = test: Test A post-emergence, corn
Experimental: as §1, with “IPOHE)),” for “IPOHE),”, “8 d” for “one day”
(§3) The test plants were then grown on under controlled conditions in a glasshouse (at 24/16° C., day/night; 14 h light; 65% humidity) and watered twice daily. After 13 d the test was evaluated (100=total damage to plant; 0=no damage to plant).

[8] = tested on: giant foxtail (Setaria faberi, SETFA); test: Test A post-emergence, giant foxtail
Experimental: as §1, with “IPOHE)),” for “IPOHE),”, “8 d” for “one day”
as §3

[9] = tested on: barnyardgrass (Echinochloa crus-galli, ECHCG); test: Test A post-emergence, barnyardgrass
Experimental: as §1, with “IPOHE)),” for “IPOHE),”, “8 d” for “one day”
as §3

[10] = tested on: ivy-leaved morning glory (Ipomoea hederacea, IPOHE); test: Test A post-emergence, ivy-leaved morning glory
Experimental: as §1, with “IPOHE)),” for “IPOHE),”, “8 d” for “one day”
as §3

[11] = tested on: redroot pigweed (Amaranthus retroflexus, AMARE); test: Test A post-emergence, redroot pigweed
Experimental: as §1, with “IPOHE)),” for “IPOHE),”, “8 d” for “one day”
as §3

[12] = tested on: velvetleaf (Abutilon theophrasti, ABUTH); test: Test A post-emergence, velvetleaf
Experimental: as §1, with “IPOHE)),” for “IPOHE),”, “8 d” for “one day”
as §3

Structure (SMILES)	damage to plant (100=total damage; 0=no damage) ZEAMX (corn (Zea mays, ZEAMX) [1]; Pre-Emergence at 15.625 g/ha)	damage to plant (100=total damage; 0=no damage) ZEAMX (corn (Zea mays, ZEAMX) [1]; Pre-Emergence at 62.5 g/ha)	damage to plant (100=total damage; 0=no damage) ZEAMX (corn (Zea mays, ZEAMX) [1]; Pre-Emergence at 250 g/ha)	damage to plant (100=total damage; 0=no damage) SETFA ([2]; Pre-Emergence at 15.625 g/ha)	damage to plant (100=total damage; 0=no damage) SETFA ([2]; Pre-Emergence at 62.5 g/ha)	damage to plant (100=total damage; 0=no damage) SETFA ([2]; Pre-Emergence at 250 g/ha)	damage to plant (100=total damage; 0=no damage) ECHCG ([3]; Pre-Emergence at 15.625 g/ha)	damage to plant (100=total damage; 0=no damage) ECHCG ([3]; Pre-Emergence at 62.5 g/ha)	damage to plant (100=total damage; 0=no damage) ECHCG ([3]; Pre-Emergence at 250 g/ha)	damage to plant (100=total damage; 0=no damage) IPOHE ([4]; Pre-Emergence at 15.625 g/ha)	damage to plant (100=total damage; 0=no damage) IPOHE ([4]; Pre-Emergence at 62.5 g/ha)	damage to plant (100=total damage; 0=no damage) IPOHE ([4]; Pre-Emergence at 250 g/ha)	damage to plant (100=total damage; 0=no damage) AMARE ([5]; Pre-Emergence at 15.625 g/ha)	damage to plant (100=total damage; 0=no damage) AMARE ([5]; Pre-Emergence at 62.5 g/ha)	damage to plant (100=total damage; 0=no damage) AMARE ([5]; Pre-Emergence at 250 g/ha)	damage to plant (100=total damage; 0=no damage) ABUTH ([6]; Pre-Emergence at 15.625 g/ha)	damage to plant (100=total damage; 0=no damage) ABUTH ([6]; Pre-Emergence at 62.5 g/ha)	damage to plant (100=total damage; 0=no damage) ABUTH ([6]; Pre-Emergence at 250 g/ha)	damage to plant (100=total damage; 0=no damage) ZEAMX (corn (Zea mays, ZEAMX) [7]; Post-Emergence at 15.625 g/ha)	damage to plant (100=total damage; 0=no damage) ZEAMX (corn (Zea mays, ZEAMX) [7]; Post-Emergence at 62.5 g/ha)	other results
CN1CC(c2cc(Cl)n(C)n2)C(C(=O)Nc2cccc(F)c2F)C1=O (racemic) [Compound 27]	0	10	10	60	80	90	70	90	90	0	0	10	0	0	0	0	0	0	0	0	damage to plant (100=total damage; 0=no damage) ZEAMX (corn (Zea mays, ZEAMX) [7]; Post-Emergence at 250 g/ha): 10; damage to plant (100=total damage; 0=no damage) SETFA ([8]; Post-Emergence at 15.625 g/ha): 10; damage to plant (100=total damage; 0=no damage) SETFA ([8]; Post-Emergence at 62.5 g/ha): 50; damage to plant (100=total damage; 0=no damage) SETFA ([8]; Post-Emergence at 250 g/ha): 70; damage to plant (100=total damage; 0=no damage) ECHCG ([9]; Post-Emergence at 15.625 g/ha): 20; damage to plant (100=total damage; 0=no damage) ECHCG ([9]; Post-Emergence at 62.5 g/ha): 50; damage to plant (100=total damage; 0=no damage) ECHCG ([9]; Post-Emergence at 250 g/ha): 70; damage to plant (100=total damage; 0=no damage) IPOHE ([10]; Post-Emergence at 15.625 g/ha): 10; damage to plant (100=total damage; 0=no damage) IPOHE ([10]; Post-Emergence at 62.5 g/ha): 10; damage to plant (100=total damage; 0=no damage) IPOHE ([10]; Post-Emergence at 250 g/ha): 20; damage to plant (100=total damage; 0=no damage) AMARE ([11]; Post-Emergence at 15.625 g/ha): 30; damage to plant (100=total damage; 0=no damage) AMARE ([11]; Post-Emergence at 62.5 g/ha): 40; damage to plant (100=total damage; 0=no damage) AMARE ([11]; Post-Emergence at 250 g/ha): 30; damage to plant (100=total damage; 0=no damage) ABUTH ([12]; Post-Emergence at 15.625 g/ha): 0; damage to plant (100=total damage; 0=no damage) ABUTH ([12]; Post-Emergence at 62.5 g/ha): 0; damage to plant (100=total damage; 0=no damage) ABUTH ([12]; Post-Emergence at 250 g/ha): 0
CCn1nc(C2CN(C)C(=O)C2C(=O)Nc2cccc(F)c2F)c2cccc(F)c21 (racemic) [Compound 10]	0	70	70	80	90	90	50	90	90	0	30	0	0	0	10	0	10	0	0	10	damage to plant (100=total damage; 0=no damage) ZEAMX (corn (Zea mays, ZEAMX) [7]; Post-Emergence at 250 g/ha): 70; damage to plant (100=total damage; 0=no damage) SETFA ([8]; Post-Emergence at 15.625 g/ha): 50; damage to plant (100=total damage; 0=no damage) SETFA ([8]; Post-Emergence at 62.5 g/ha): 80; damage to plant (100=total damage; 0=no damage) SETFA ([8]; Post-Emergence at 250 g/ha): 90; damage to plant (100=total damage; 0=no damage) ECHCG ([9]; Post-Emergence at 15.625 g/ha): 60; damage to plant (100=total damage; 0=no damage) ECHCG ([9]; Post-Emergence at 62.5 g/ha): 90; damage to plant (100=total damage; 0=no damage) ECHCG ([9]; Post-Emergence at 250 g/ha): 90; damage to plant (100=total damage; 0=no damage) IPOHE ([10]; Post-Emergence at 15.625 g/ha): 0; damage to plant (100=total damage; 0=no damage) IPOHE ([10]; Post-Emergence at 62.5 g/ha): 0; damage to plant (100=total damage; 0=no damage) IPOHE ([10]; Post-Emergence at 250 g/ha): 30; damage to plant (100=total damage; 0=no damage) AMARE ([11]; Post-Emergence at 15.625 g/ha): 0; damage to plant (100=total damage; 0=no damage) AMARE ([11]; Post-Emergence at 62.5 g/ha): 0; damage to plant (100=total damage; 0=no damage) AMARE ([11]; Post-Emergence at 250 g/ha): 0; damage to plant (100=total damage; 0=no damage) ABUTH ([12]; Post-Emergence at 15.625 g/ha): 0; damage to plant (100=total damage; 0=no damage) ABUTH ([12]; Post-Emergence at 62.5 g/ha): 0; damage to plant (100=total damage; 0=no damage) ABUTH ([12]; Post-Emergence at 250 g/ha): 10
